From PubChem BioAssay (NCI)
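Compound exposure: 48 hours, 5 concentrations, 96-well plates. Definition used: TGI = concentration required for complete inhibition of growth.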

How the values were obtained:
Test in all cases: growth of human tumour cells (NCI), 48 h
HCT-116 colon = system: HCT-116 colon
CCRF-CEM leukemia = system: CCRF-CEM leukemia
K-562 leukemia = system: K-562 leukemia
SF-268 CNS = system: SF-268 CNS
T-47D breast = system: T-47D breast
KM20L2 colon = system: KM20L2 colon
OVCAR-5 ovarian = system: OVCAR-5 ovarian
UACC-62 melanoma = system: UACC-62 melanoma
786-0 renal = system: 786-0 renal
SK-OV-3 ovarian = system: SK-OV-3 ovarian
SK-MEL-28 melanoma = system: SK-MEL-28 melanoma
LXFL 529 NSCLC = system: LXFL 529 NSCLC
UO-31 renal = system: UO-31 renal
ACHN renal = system: ACHN renal
U251 CNS = system: U251 CNS
HL-60(TB) leukemia = system: HL-60(TB) leukemia
NCI-H460 lung = system: NCI-H460 lung
LOX IMVI melanoma = system: LOX IMVI melanoma
DLD-1 colon = system: DLD-1 colon
MDA-N = system: MDA-N
MDA-MB-231 breast = system: MDA-MB-231 breast
M14 melanoma = system: M14 melanoma
NCI-H522 lung = system: NCI-H522 lung
A498 renal = system: A498 renal
SW-620 colon = system: SW-620 colon
PC-3 prostate = system: PC-3 prostate
CAKI-1 renal = system: CAKI-1 renal
SF-539 CNS = system: SF-539 CNS
DMS 114 small cell lung = system: DMS 114 small cell lung
EKVX NSCLC = system: EKVX NSCLC
NCI/ADR-RES ovarian = system: NCI/ADR-RES ovarian
SNB-19 CNS = system: SNB-19 CNS
MCF7 breast = system: MCF7 breast
OVCAR-8 ovarian = system: OVCAR-8 ovarian
HT29 colon = system: HT29 colon
IGROV1 ovarian = system: IGROV1 ovarian
COLO 205 colon = system: COLO 205 colon
A549 NSCLC = system: A549 NSCLC
DMS 273 small cell lung = system: DMS 273 small cell lung
RPMI-8226 leukemia = system: RPMI-8226 leukemia
BT-549 breast = system: BT-549 breast
MDA-MB-435 = system: MDA-MB-435
UACC-257 melanoma = system: UACC-257 melanoma
HOP-62 NSCLC = system: HOP-62 NSCLC
RXF 393 renal = system: RXF 393 renal
NCI-H226 lung = system: NCI-H226 lung
HS 578T breast = system: HS 578T breast
MALME-3M melanoma = system: MALME-3M melanoma
MOLT-4 leukemia = system: MOLT-4 leukemia
TK-10 renal = system: TK-10 renal
XF 498 CNS = system: XF 498 CNS
NCI-H23 lung = system: NCI-H23 lung
SK-MEL-5 melanoma = system: SK-MEL-5 melanoma
SR leukemia = system: SR leukemia
OVCAR-3 ovarian = system: OVCAR-3 ovarian
M19-MEL melanoma = system: M19-MEL melanoma
SN12C renal = system: SN12C renal
DU-145 prostate = system: DU-145 prostate
KM12 colon = system: KM12 colon
HOP-92 NSCLC = system: HOP-92 NSCLC
SF-295 CNS = system: SF-295 CNS
SK-MEL-2 melanoma = system: SK-MEL-2 melanoma
OVCAR-4 ovarian = system: OVCAR-4 ovarian
SNB-78 CNS = system: SNB-78 CNS
HCT-15 colon = system: HCT-15 colon
HOP-18 NSCLC = system: HOP-18 NSCLC

SMILES: O=C(CSc1ncnc2nc[nH]c12)c1ccccc1
- TGI (HCT-116 colon): > 100 µM
- TGI (CCRF-CEM leukemia): > 100 µM
- TGI (K-562 leukemia): > 100 µM
- TGI (SF-268 CNS): > 100 µM
- TGI (T-47D breast): > 100 µM
- TGI (KM20L2 colon): > 100 µM
- TGI (OVCAR-5 ovarian): > 100 µM
- TGI (UACC-62 melanoma): > 100 µM
- TGI (786-0 renal): > 100 µM
- TGI (SK-OV-3 ovarian): > 100 µM
- TGI (SK-MEL-28 melanoma): > 100 µM
- TGI (LXFL 529 NSCLC): > 100 µM
- TGI (UO-31 renal): > 100 µM
- TGI (ACHN renal): > 100 µM
- TGI (U251 CNS): > 100 µM
- TGI (HL-60(TB) leukemia): > 100 µM
- TGI (NCI-H460 lung): > 100 µM
- TGI (LOX IMVI melanoma): > 100 µM
- TGI (DLD-1 colon): > 100 µM
- TGI (MDA-N): > 100 µM
- TGI (MDA-MB-231 breast): > 100 µM
- TGI (M14 melanoma): > 100 µM
- TGI (NCI-H522 lung): > 100 µM
- TGI (A498 renal): > 100 µM
- TGI (SW-620 colon): > 100 µM
- TGI (PC-3 prostate): > 100 µM
- TGI (CAKI-1 renal): > 100 µM
- TGI (SF-539 CNS): > 100 µM
- TGI (DMS 114 small cell lung): > 100 µM
- TGI (EKVX NSCLC): > 100 µM
- TGI (NCI/ADR-RES ovarian): > 100 µM
- TGI (SNB-19 CNS): > 100 µM
- TGI (MCF7 breast): > 100 µM
- TGI (OVCAR-8 ovarian): > 100 µM
- TGI (HT29 colon): > 100 µM
- TGI (IGROV1 ovarian): > 100 µM
- TGI (COLO 205 colon): > 100 µM
- TGI (A549 NSCLC): > 100 µM
- TGI (DMS 273 small cell lung): > 100 µM
- TGI (RPMI-8226 leukemia): > 100 µM
- TGI (BT-549 breast): > 100 µM
- TGI (MDA-MB-435): > 100 µM
- TGI (UACC-257 melanoma): > 100 µM
- TGI (HOP-62 NSCLC): > 100 µM
- TGI (RXF 393 renal): > 100 µM
- TGI (NCI-H226 lung): > 100 µM
- TGI (HS 578T breast): > 100 µM
- TGI (MALME-3M melanoma): > 100 µM
- TGI (MOLT-4 leukemia): > 100 µM
- TGI (TK-10 renal): > 100 µM
- TGI (XF 498 CNS): > 100 µM
- TGI (NCI-H23 lung): > 100 µM
- TGI (SK-MEL-5 melanoma): > 100 µM
- TGI (SR leukemia): > 100 µM
- TGI (OVCAR-3 ovarian): > 100 µM
- TGI (M19-MEL melanoma): > 100 µM
- TGI (SN12C renal): > 100 µM
- TGI (DU-145 prostate): > 100 µM
- TGI (KM12 colon): > 57.1 µM
- TGI (HOP-92 NSCLC): > 100 µM
- TGI (SF-295 CNS): > 100 µM
- TGI (SK-MEL-2 melanoma): > 57.8 µM
- TGI (OVCAR-4 ovarian): > 100 µM
- TGI (SNB-78 CNS): > 100 µM
- TGI (HCT-15 colon): > 100 µM
- TGI (HOP-18 NSCLC): > 100 µM
